IC50 data for 30 compounds are collected here from US11203600B2 (Denali Therapeutics Inc., priority 2017, dated 2021).

The structures appear in SMILES notation.

For the assay, the target named is GST-hRIPK1 (8-327) (Homo sapiens (Human), UniProt Q13546). Briefly: Fluorescent Polarization Binding (FP Binding) assay, RIPK1. To be noted: 10 nM GST-hRIPK1 (8-327), 5 nM fluorescent-labeled ligand, RT, 30 min, mean of at least two independent experiments. In a few lines:
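Binding by fluorescence polarisation at RT: 10 nM baculovirus-expressed GST-hRIPK1 (8-327) and 5 nM fluorescent ligand, 30 min, in 50 mM HEPES pH 7.5, 50 mM MgCl2, 0.02% CHAPS, 1% DMSO. FP read at ex 531/em 595 nm. IC50 from normalised percent inhibition, mean of ≥2 experiments.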

Sequence of GST-hRIPK1 (8-327) (Q13546 8-327): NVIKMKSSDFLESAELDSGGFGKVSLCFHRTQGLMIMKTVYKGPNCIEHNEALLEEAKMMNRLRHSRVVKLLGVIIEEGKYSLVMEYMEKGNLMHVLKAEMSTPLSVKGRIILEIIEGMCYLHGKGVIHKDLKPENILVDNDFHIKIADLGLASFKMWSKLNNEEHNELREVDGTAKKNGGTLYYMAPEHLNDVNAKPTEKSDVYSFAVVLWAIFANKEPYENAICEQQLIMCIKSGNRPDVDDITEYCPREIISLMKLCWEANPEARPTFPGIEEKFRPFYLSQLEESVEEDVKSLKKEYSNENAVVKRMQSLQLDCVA

With `CC(C)(C(=O)N1CCOc2c(C#N)cncc2C1)C1CCN(c2ncc(F)cn2)C1` (stereo not drawn) [Example 90, 4-[2-[1-(5-fluoropyrimidin-2-yl)pyrrolidin-3-yl]-2-methyl-propanoyl]-3,5-dihydro-2H-pyrido[3,4-f][1,4]oxazepine-9-carbonitrile], the IC50 was 0.1 to 100 nM.

For the compound `CC1CC(C(=O)N2CCOc3c(C#N)cncc3C2)CCN1c1ncc(F)cn1` (stereo not drawn) [Example 91, 4-[1-(5-fluoropyrimidin-2-yl)-2-methyl-piperidine-4-carbonyl]-3,5-dihydro-2H-pyrido[3,4-f][1,4]oxazepine-9-carbonitrile], the IC50 lay within 100 to 1000 nM.

Compound `N#Cc1cncc2c1OCCN(C(=O)C1CCCN(c3ncc(F)cn3)CC1)C2` (stereo not drawn) [Example 92, 4-[1-(5-fluoropyrimidin-2-yl)azepane-4-carbonyl]-3,5-dihydro-2H-pyrido[3,4-f][1,4]oxazepine-9-carbonitrile] gave an IC50 of 100 to 1000 nM.

Regarding `N#Cc1cncc2c1OCCN(C(=O)C13CC(COc4ncc(F)cn4)(C1)C3)C2` [Example 93, 4-(3-(((5-fluoropyrimidin-2-yl)oxy)methyl)bicyclo[1.1.1]pentane-1-carbonyl)-2,3,4,5-tetrahydropyrido[3,4-f][1,4]oxazepine-9-carbonitrile], the IC50 was in the range of 100 to 1000 nM.

Consider `N#Cc1cncc2c1OCCN(C(=O)C1(C(F)F)CCN(c3ncc(F)cn3)CC1)C2` [Example 94, 4-[4-(difluoromethyl)-1-(5-fluoropyrimidin-2-yl)piperidine-4-carbonyl]-3,5-dihydro-2H-pyrido[3,4-f][1,4]oxazepine-9-carbonitrile], for which the IC50 is 100 to 1000 nM.

`N#Cc1cncc2c1OCCN(C(=O)C1(F)CCN(C(=O)c3cccnc3)CC1)C2` [Example 95, 4-[4-fluoro-1-(pyridine-3-carbonyl)piperidine-4-carbonyl]-3,5-dihydro-2H-pyrido[3,4-f][1,4]oxazepine-9-carbonitrile] had an IC50 of over 1000 nM.

In the case of `CC1(C(=O)N2CCOc3c(C#N)cncc3C2)CCN(c2ncc(F)cn2)CC1(F)F` (stereo not drawn) [Example 96, 4-[3,3-difluoro-1-(5-fluoropyrimidin-2-yl)-4-methyl-piperidine-4-carbonyl]-3,5-dihydro-2H-pyrido[3,4-f][1,4]oxazepine-9-carbonitrile], the IC50 is 0.1 to 100 nM.

`N#Cc1cncc2c1OCCN(C(=O)C1(F)CCN(c3ncc4ccccc4n3)CC1)C2` [Example 97, 4-(4-fluoro-1-quinazolin-2-yl-piperidine-4-carbonyl)-3,5-dihydro-2H-pyrido[3,4-f][1,4]oxazepine-9-carbonitrile] had an IC50 of 0.1 to 100 nM.

`CCC1(C(=O)N2CCOc3c(C#N)cncc3C2)CCN(c2ncc(F)cn2)CC1` [Example 98, 4-[4-ethyl-1-(5-fluoropyrimidin-2-yl)piperidine-4-carbonyl]-3,5-dihydro-2H-pyrido[3,4-f][1,4]oxazepine-9-carbonitrile] displayed an IC50 of 100 to 1000 nM.

For the compound `N#Cc1cncc2c1OCCN(C(=O)C13CCN(c4ncc(F)cn4)CC1C3(F)F)C2` (stereo not drawn) [Example 99, 4-[7,7-difluoro-3-(5-fluoropyrimidin-2-yl)-3-azabicyclo[4.1.0]heptane-6-carbonyl]-3,5-dihydro-2H-pyrido[3,4-f][1,4]oxazepine-9-carbonitrile], the IC50 lay in the range of 100 to 1000 nM.

In turn, `N#Cc1cncc2c1OCCN(C(=O)C1(F)CCN(c3ncc(C4CC4)cn3)CC1)C2` [Example 100, 4-[1-(5-cyclopropylpyrimidin-2-yl)-4-fluoro-piperidine-4-carbonyl]-3,5-dihydro-2H-pyrido[3,4-f][1,4]oxazepine-9-carbonitrile] yielded an IC50 of 100 to 1000 nM.

`COc1cnc(N2CCC(F)(C(=O)N3CCOc4c(C#N)cncc4C3)CC2)nc1` [Example 101, 4-[4-fluoro-1-(5-methoxypyrimidin-2-yl)piperidine-4-carbonyl]-3,5-dihydro-2H-pyrido[3,4-f][1,4]oxazepine-9-carbonitrile]: the IC50 is 100 to 1000 nM.

As to `N#Cc1cncc2c1OCCN(C(=O)C1(F)CCN(c3ncc(OC(F)F)cn3)CC1)C2` [Example 102, 4-[1-[5-(difluoromethoxy)pyrimidin-2-yl]-4-fluoro-piperidine-4-carbonyl]-3,5-dihydro-2H-pyrido[3,4-f][1,4]oxazepine-9-carbonitrile], the IC50 was 100 to 1000 nM.

The compound `COc1ccnc(N2CCC(F)(C(=O)N3CCOc4c(C#N)cncc4C3)CC2)n1` [Example 103, 4-[4-fluoro-1-(4-methoxypyrimidin-2-yl)piperidine-4-carbonyl]-3,5-dihydro-2H-pyrido[3,4-f][1,4]oxazepine-9-carbonitrile] registered an IC50 of 0.1 to 100 nM.

`C[C@@H]1COc2c(C#N)cncc2CN1C(=O)C1CCN(c2ncc(F)cn2)CC1` [Example 104, (3R)-4-(1-(5-fluoropyrimidin-2-yl)piperidine-4-carbonyl)-3-methyl-2,3,4,5-tetrahydropyrido[3,4-f][1,4]oxazepine-9-carbonitrile] gave an IC50 of 0.1 to 100 nM.

On to `COC1(C(=O)N2Cc3cncc(C#N)c3OC[C@H]2C)CCN(c2ncc(F)cn2)CC1` [Example 105, (3R)-4-[1-(5-fluoropyrimidin-2-yl)-4-methoxy-piperidine-4-carbonyl]-3-methyl-3,5-dihydro-2H-pyrido[3,4-f][1,4]oxazepine-9-carbonitrile], for which the IC50 was in the range of 0.1 to 100 nM.

Regarding `N#Cc1cncc2c1OCCN(C(=O)C1(F)CCN(c3nccn4ccnc34)CC1)C2` [Example 106, 4-(4-fluoro-1-imidazo[1,2-a]pyrazin-8-yl-piperidine-4-carbonyl)-3,5-dihydro-2H-pyrido[3,4-f][1,4]oxazepine-9-carbonitrile], the IC50 fell in the range of 100 to 1000 nM.

Compound `Cn1ncc2cnc(N3CCC(F)(C(=O)N4CCOc5c(C#N)cncc5C4)CC3)cc21` [Example 107, 4-[4-fluoro-1-(1-methylpyrazolo[4,3-c]pyridin-6-yl)piperidine-4-carbonyl]-3,5-dihydro-2H-pyrido[3,4-f][1,4]oxazepine-9-carbonitrile] had an IC50 of 100 to 1000 nM.

`Cn1ccc2nc(N3CCC(F)(C(=O)N4CCOc5c(C#N)cncc5C4)CC3)ncc21` [Example 108, 4-[4-fluoro-1-(5-methylpyrrolo[3,2-d]pyrimidin-2-yl)piperidine-4-carbonyl]-3,5-dihydro-2H-pyrido[3,4-f][1,4]oxazepine-9-carbonitrile] returned an IC50 of 100 to 1000 nM.

With `N#Cc1cncc2c1OCCN(C(=O)C1(F)CCN(c3ccc4nccn4n3)CC1)C2` [Example 109, 4-(4-fluoro-1-imidazo[1,2-b]pyridazin-6-yl-piperidine-4-carbonyl)-3,5-dihydro-2H-pyrido[3,4-f][1,4]oxazepine-9-carbonitrile], the IC50 is 100 to 1000 nM.

As for `N#Cc1cncc2c1OCCN(C(=O)C1(F)CCN(c3ccnc4ccnn34)CC1)C2` [Example 110, 4-(4-fluoro-1-(pyrazolo[1,5-a]pyrimidin-7-yl)piperidine-4-carbonyl)-2,3,4,5-tetrahydropyrido[3,4-f][1,4]oxazepine-9-carbonitrile], the IC50 fell in the range of 0.1 to 100 nM.

For `N#Cc1cncc2c1OCCN(C(=O)C1(F)CCN(c3ncc4c(n3)CCC4)CC1)C2` [Example 111, 4-[1-(6,7-dihydro-5H-cyclopenta[d]pyrimidin-2-yl)-4-fluoro-piperidine-4-carbonyl]-3,5-dihydro-2H-pyrido[3,4-f][1,4]oxazepine-9-carbonitrile], the IC50 was 100 to 1000 nM.

Compound `N#Cc1cncc2c1OCCN(C(=O)C1(F)CCN(c3ncncc3F)CC1)C2` [Example 112, 4-(4-fluoro-1-(5-fluoropyrimidin-4-yl)piperidine-4-carbonyl)-2,3,4,5-tetrahydropyrido[3,4-f][1,4]oxazepine-9-carbonitrile] showed an IC50 of 100 to 1000 nM.

Compound `N#Cc1cncc2c1OCCN(C(=O)C1(F)CCN(c3ncccc3F)CC1)C2` [Example 113, 4-[4-fluoro-1-(3-fluoro-2-pyridyl)piperidine-4-carbonyl]-3,5-dihydro-2H-pyrido[3,4-f][1,4]oxazepine-9-carbonitrile] showed an IC50 of 100 to 1000 nM.

For the compound `COc1ncc(F)c(N2CCC(F)(C(=O)N3CCOc4c(C#N)cncc4C3)CC2)n1` [Example 114, 4-[4-fluoro-1-(5-fluoro-2-methoxy-pyrimidin-4-yl)piperidine-4-carbonyl]-3,5-dihydro-2H-pyrido[3,4-f][1,4]oxazepine-9-carbonitrile], the IC50 is 0.1 to 100 nM.

As to `COc1ccc(N2CCC(F)(C(=O)N3CCOc4c(C#N)cncc4C3)CC2)nn1` [Example 115, 4-[4-fluoro-1-(6-methoxypyridazin-3-yl)piperidine-4-carbonyl]-3,5-dihydro-2H-pyrido[3,4-f][1,4]oxazepine-9-carbonitrile], the IC50 was in the range of 100 to 1000 nM.

`N#Cc1cncc2c1OCCN(C(=O)C1(F)CCN(c3cccnn3)CC1)C2` [Example 116, 4-(4-fluoro-1-pyridazin-3-yl-piperidine-4-carbonyl)-3,5-dihydro-2H-pyrido[3,4-f][1,4]oxazepine-9-carbonitrile]: the IC50 is 100 to 1000 nM.

Turning to `COc1ccnc(N2CCC(C(=O)N3CCOc4c(C#N)cncc4C3)CC2)n1` [Example 117, 4-[1-(4-methoxypyrimidin-2-yl)piperidine-4-carbonyl]-3,5-dihydro-2H-pyrido[3,4-f][1,4]oxazepine-9-carbonitrile], the IC50 was 0.1 to 100 nM.

`COc1nc(N2CCC(C(=O)N3CCOc4c(C#N)cncc4C3)CC2)ncc1F` [Example 118, 4-[1-(5-fluoro-4-methoxy-pyrimidin-2-yl)piperidine-4-carbonyl]-3,5-dihydro-2H-pyrido[3,4-f][1,4]oxazepine-9-carbonitrile] registered an IC50 of 0.1 to 100 nM.

The compound `COc1ccnc(N2CCC(C(=O)N3Cc4cncc(C#N)c4OC[C@H]3C)CC2)n1` [Example 119, (3R)-4-(1-(4-methoxypyrimidin-2-yl)piperidine-4-carbonyl)-3-methyl-2,3,4,5-tetrahydropyrido[3,4-f][1,4]oxazepine-9-carbonitrile] displayed an IC50 of 0.1 to 100 nM.
